# Key:
# [1] = Retention time in the organism / long-term activity; assay type: in vivo; details: for activity in respect of pharmacokinetics: vs known 3-piperazinyl-rifamycins; for retention time in the organism: vs rifampicin or compounds 1 to 4 of U.S. Pat. No. 4,005,077
# [2] = test system: M. intracellular K 653; experiment: MIC against atypical Mycobacteria, non-photochromogenic (Table II); assay type: cell-based; details: read-out: MIC (minimum inhibitory concentration)
# Excerpt: (§1) MIC = minimum inhibitory concentration (1 mcg = 1.10^-5 g)
# [3] = test system: M. intracellular K 546; experiment: as above; assay type: cell-based; details: read-out: MIC (minimum inhibitory concentration)
# Excerpt: as §1
# [4] = test system: M. intracellular K 551; experiment: as above; assay type: cell-based; details: read-out: MIC (minimum inhibitory concentration)
# Excerpt: as §1
# [5] = test system: M. intracellular K 550; experiment: as above; assay type: cell-based; details: read-out: MIC (minimum inhibitory concentration)
# Excerpt: as §1
# [6] = test system: M. intracellular K 181; experiment: as above; assay type: cell-based; details: read-out: MIC (minimum inhibitory concentration)
# Excerpt: as §1
# [7] = test system: M. avium K 536; experiment: as above; assay type: cell-based; details: Mycobacterium avium, K536, read-out: MIC (minimum inhibitory concentration)
# Excerpt: as §1
# [8] = test system: M. aquae K 1165; experiment: MIC against atypical Mycobacteria, scotochromogenic (Table II); assay type: cell-based; details: read-out: MIC (minimum inhibitory concentration)
# Excerpt: as §1
# [9] = test system: M. xenopei K 716; experiment: as above; assay type: cell-based; details: Mycobacterium xenopi, K716, read-out: MIC (minimum inhibitory concentration)
# Excerpt: as §1
# [10] = test system: M. scrofulaceum K 1166; experiment: as above; assay type: cell-based; details: Mycobacterium scrofulaceum, K1166, read-out: MIC (minimum inhibitory concentration)
# Excerpt: as §1
# [11] = test system: M. kansasii K 367; experiment: MIC against atypical Mycobacteria, photochromogenic (Table II); assay type: cell-based; details: Mycobacterium kansasii, K367, read-out: MIC (minimum inhibitory concentration)
# Excerpt: as §1
# [12] = test system: Mycobacterium tuberculosis TB H3 Rv; experiment: Activity against Mycobacterium tuberculosis TB H3 Rv in vitro, MIC (Table 1); assay type: cell-based; details: TBH3RV, read-out: MIC (minimum inhibitory concentration)
# Excerpt: (a) minimum inhibitory concentration (1 mcg = 1.10^-5 g)
# [13] = test system: Mycobacterium tuberculosis TB H3 Rv; experiment: Activity against Mycobacterium tuberculosis TB H3 Rv, ED50 p.o. (Table 1); assay type: in vivo; details: TBH3RV, po
# [14] = test system: atypical Mycobacteria; experiment: Antimicrobial activity in vitro against atypical Mycobacteria; assay type: cell-based, Mycobacterium; details: against a number of atypical Mycobacteria; vs rifampicin
# Excerpt: This excellent activity is especially pronounced in group c, i.e. non-photochromogenic micro-organisms, which are among the most dangerous pathogens of AIDS infections.
# [15] = Pharmacokinetics in rats (Table 1); assay type: in vivo; details: rat; for half-life: in vivo, read-out: t/2 (halflife of the elimination) (converted); for Cmax: plasma, read-out: Cmax (maximum concentration in the plasma)
# Excerpt: (c) Cmax = maximum concentration in the plasma (1 mcg = 1.10^-5
# [16] = Pharmacokinetics in mice (Table 1); assay type: in vivo; details: mouse; for half-life: in vivo, read-out: t/2 (halflife of the elimination) (converted); for Cmax: plasma, read-out: Cmax (maximum concentration in the plasma)
Structure (SMILES),activity in respect of pharmacokinetics [1],retention time in the organism [1],MIC [2],MIC [3],MIC [4],MIC [5],MIC [6],MIC [7],MIC [8],MIC [9],MIC [10],MIC [11],MIC [12],ED50 [13],antimicrobial activity in vitro compared with rifampicin [14],half-life [15],Cmax [15],half-life [16],Cmax [16]
"COC1C=COC2(C)Oc3c(C)c(O)c4c(O)c(c(N5CCN(Cc6c(C)cc(C)cc6C)CC5)c(O)c4c3C2=O)NC(=O)C(C)=CC=CC(C)C(O)C(C)C(O)C(C)C(OC(C)=O)C1C (stereo not drawn) [A, 3-[4-(2,4,6-trimethylbenzyl)-piperazin-1-yl]-rifamycin SV]",superior activity in respect of pharmacokinetics,appreciably longer than that of rifampicin or of compounds 1 to 4,0.125 µg/mL,0.125 µg/mL,0.25 µg/mL,0.25 µg/mL,0.03 µg/mL,0.5 µg/mL,0.03 µg/mL,1 µg/mL,0.03 µg/mL,0.015 µg/mL,0.003 µg/mL,4 mg/kg,several times greater than the antimicrobial activity exhibited by rifampicin,~450 h,1510 ng/mL,47.4 h,2950 ng/mL
"COC1C=COC2(C)Oc3c(C)c(O)c4c(O)c(c(N5CCN(Cc6cccc7ccccc67)CC5)c(O)c4c3C2=O)NC(=O)C(C)=CC=CC(C)C(O)C(C)C(O)C(C)C(OC(C)=O)C1C (stereo not drawn) [B, 3-[4-(1-naphthylmethyl)-piperazin-1-yl]rifamycin SV]",superior activity in respect of pharmacokinetics,appreciably longer than that of rifampicin or of compounds 1 to 4,0.25 µg/mL,1 µg/mL,1 µg/mL,1 µg/mL,0.125 µg/mL,1 µg/mL,0.03 µg/mL,0.5 µg/mL,0.06 µg/mL,0.015 µg/mL,0.0003 µg/mL,3 mg/kg,several times greater than the antimicrobial activity exhibited by rifampicin,111 h,1120 ng/mL,48.5 h,1880 ng/mL
"COC1C=COC2(C)Oc3c(C)c(O)c4c(O)c(c(N5CCN(Cc6ccccc6C)CC5)c(O)c4c3C2=O)NC(=O)C(C)=CC=CC(C)C(O)C(C)C(O)C(C)C(OC(C)=O)C1C (stereo not drawn) [Compound 1, 3-[4-(o-methylbenzyl)-piperazin-1-yl]-rifamycin SV]",,,,,,,,,,,,,0.001 µg/mL,1.4 mg/kg,,86 h,1320 ng/mL,22.9 h,2690 ng/mL
COC1C=COC2(C)Oc3c(C)c(O)c4c(O)c(c(N5CCN(Cc6cccc(C)c6)CC5)c(O)c4c3C2=O)NC(=O)C(C)=CC=CC(C)C(O)C(C)C(O)C(C)C(OC(C)=O)C1C (stereo not drawn) [Compound 2],,,,,,,,,,,,,0.0003 µg/mL,1.4 mg/kg,,,,11.9 h,3390 ng/mL
"COC1C=COC2(C)Oc3c(C)c(O)c4c(O)c(c(N5CCN(Cc6ccc(C)cc6)CC5)c(O)c4c3C2=O)NC(=O)C(C)=CC=CC(C)C(O)C(C)C(O)C(C)C(OC(C)=O)C1C (stereo not drawn) [Compound 3, 3-[4-(p-methylbenzyl)-piperazin-1-yl]-rifamycin SV]",,,,,,,,,,,,,0.0001 µg/mL,1.2 mg/kg,,,,11.5 h,2280 ng/mL
"COC1C=COC2(C)Oc3c(C)c(O)c4c(O)c(c(N5CCN(Cc6ccc(C(C)C)cc6)CC5)c(O)c4c3C2=O)NC(=O)C(C)=CC=CC(C)C(O)C(C)C(O)C(C)C(OC(C)=O)C1C (stereo not drawn) [Compound 4, 3-[4-(p-isopropylbenzyl)-piperazin-1-yl]-rifamycin SV]",,,,,,,,,,,,,0.003 µg/mL,1.5 mg/kg,,,,20.4 h,1810 ng/mL
"COC1C=COC2(C)Oc3c(C)c(O)c4c(O)c(c(N5CCN(CC(C)C)CC5)c(O)c4c3C2=O)NC(=O)C(C)=CC=CC(C)C(O)C(C)C(O)C(C)C(OC(C)=O)C1C (stereo not drawn) [Compound 5, 3-(4-isobutylpiperazin-1-yl)-rifamycin SV]",,,,,,,,,,,,,0.0001 µg/mL,1 mg/kg,,,,12 h,1200 ng/mL
C=C(C)CN1CCN(c2c3c(O)c4c(O)c(C)c5c(c4c2O)C(=O)C(C)(OC=CC(OC)C(C)C(OC(C)=O)C(C)C(O)C(C)C(O)C(C)C=CC=C(C)C(=O)N3)O5)CC1 (stereo not drawn) [Compound 6],,,,,,,,,,,,,0.0003 µg/mL,1 mg/kg,,,,21 h,1400 ng/mL
CO[C@H]1/C=C/O[C@@]2(C)Oc3c(C)c(O)c4c(O)c(c(/C=N/N5CCN(C)CC5)c(O)c4c3C2=O)NC(=O)/C(C)=C\C=C\[C@H](C)[C@H](O)[C@@H](C)[C@@H](O)[C@@H](C)[C@H](OC(C)=O)[C@@H]1C [Rifampicin],,,2 µg/mL,16 µg/mL,1 µg/mL,8 µg/mL,0.5 µg/mL,64 µg/mL,0.25 µg/mL,1 µg/mL,1 µg/mL,0.25 µg/mL,0.003 µg/mL,5.9 mg/kg,,,1390 ng/mL,,2480 ng/mL
